# Reference: patent US9149462B2, “Pyrazole compounds acting against allergic, inflammatory and immune disorders” (Glaxo Group Limited, priority 2010, dated 2015)
# Tests used:
# Format in all cases: in vitro ADME
# [1] = In vitro microsomal clearance, rat (Wistar Han)
# [2] = In vitro microsomal clearance, rat (CD)
# [3] = In vitro microsomal clearance, human
# [4] = In vitro microsomal clearance, dog (Beagle)
Clint [1],Clint [2],Clint [3],Clint [4],Structure (SMILES)
2.05 mL/min g liver,1.67 mL/min g liver,0.80 mL/min g liver,0.98 mL/min g liver,"O=C(Nc1cnn(Cc2c(F)cccc2C(F)(F)F)c1)c1c(F)cccc1F [Example 6, 2,6-Difluoro-N-(1-{[2-fluoro-6-(trifluoromethyl)phenyl]methyl}-1H-pyrazol-4-yl)benzamide]"
1.16 mL/min g liver,0.95 mL/min g liver,<0.5 mL/min g liver,0.80 mL/min g liver,"[2H]C([2H])(c1c(F)cccc1C(F)(F)F)n1cc(NC(=O)c2c(F)cccc2F)cn1 [Example 29, 2,6-Difluoro-N-(1-(2-fluoro-6-(trifluoromethyl)-d2-benzyl)-1H-pyrazol-4-yl)benzamide]"
